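Step 1: Grow cells in 96-well plates. Step 2: Expose to compound for 48 hours at 5 concentrations. Step 3: Interpolate endpoints linearly; if unreached, use highest concentration. TGI denotes the concentration required for complete inhibition of growth.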
Experiments:
Test in all cases: NCI anticancer screen, dose series, 48 h
[1] = system: CCRF-CEM leukemia
[2] = system: NCI-H460 lung
[3] = system: PC-3 prostate
[4] = system: MDA-MB-231 breast
[5] = system: RPMI-8226 leukemia
[6] = system: MDA-MB-435
[7] = system: T-47D breast
[8] = system: UO-31 renal
[9] = system: MCF7 breast
[10] = system: BT-549 breast
[11] = system: U251 CNS
[12] = system: SW-620 colon
[13] = system: SK-MEL-2 melanoma
[14] = system: ACHN renal
[15] = system: HOP-62 NSCLC
[16] = system: SK-MEL-28 melanoma
[17] = system: SK-MEL-5 melanoma
[18] = system: M14 melanoma
[19] = system: SF-295 CNS
[20] = system: NCI-H226 lung

SMILES	TGI [1] [µM]	TGI [2] [µM]	TGI [3] [µM]	TGI [4] [µM]	TGI [5] [µM]	TGI [6] [µM]	TGI [7] [µM]	TGI [8] [µM]	TGI [9] [µM]	TGI [10] [µM]	TGI [11] [µM]	TGI [12] [µM]	TGI [13] [µM]	TGI [14] [µM]	TGI [15] [µM]	TGI [16] [µM]	TGI [17] [µM]	TGI [18] [µM]	TGI [19] [µM]	TGI [20] [µM]
CC(C)(C)OC(=O)N(O)[C@@H]1C=C[C@H](n2cnc3c(N)ncnc32)C1	> 100	> 100	> 100	> 100	> 100	> 100	> 100	> 100	> 100	> 100	> 100	> 100	> 100	> 100	> 100	> 100	> 100	> 100	> 100	96.9
OCC(CN1CCCCC1)(CN1CCCCC1)CN1CCCCC1	> 100	> 100	> 100	> 100		> 100	> 100	> 100	> 100	> 100	> 100	> 100		> 100	> 100	> 100	> 100	> 100		> 100
O=C1/C(=C\c2ccc(Cl)cc2Cl)Sc2scc(-c3cccc([N+](=O)[O-])c3)[n+]21		29.7	33.1	25.1	26.9	27.8	57.8	13.8	15.5	18.1	44.1	> 32.2	30.3	12.6	37.1	59.2	7.93	19.9	> 68.9	38.2
O=C(/C=C(\O)c1ccc(Cl)cc1)C(=O)N=Nc1c(O)[nH]c2ccc(Br)cc12		> 100	> 100	> 100	92.3	> 100	> 100	> 100	> 100	> 100	> 100	> 100	41.2	> 100	> 100	> 100	> 100	> 100	> 100	> 100
Cc1nc(C)c(C(=O)NNC(=O)Cc2ccccc2)cc1C(=O)NNC(=O)Cc1ccccc1	> 100	> 100	> 100	> 100	> 100	> 100	> 100	> 100	> 100	> 100	> 100	> 100	> 100	> 100	> 100		> 100	> 100	> 100	> 100
CC(=O)Oc1ccc2c(c1)Oc1cc(C(C)=O)ccc1C21OC(=O)c2ccccc21 (centres undefined)		> 100	> 100	> 100	> 100	> 100	> 100	> 100	> 100	> 100	> 100	> 100	> 100	> 100	> 100	> 100	> 100	> 100	> 100	
CC1=NN(C(=O)CC(=O)Nc2ccccc2C)C(=O)C1N=Nc1ccc(C(=O)O)cc1 (centres undefined)	> 100	> 100	> 100	> 100	> 100	> 100	> 100	> 100	> 100	> 100	> 100	> 100	> 100	> 100	> 100	> 100	> 100	> 100	> 100	
CCCCCCCC1(N=[N+]=[N-])C(=O)c2ccccc2N(C)C1=O (centres undefined)	> 100	> 100	> 100	> 100	> 100	> 100	> 100		> 100	> 100	> 100	> 100		> 100	> 100	> 100	> 100	> 100	> 100	> 100
COc1ccc(NC(=O)CC(=O)N2N=C(N3CCCCC3)CC2c2ccccc2)cc1 (centres undefined)	> 100	> 100	> 100	> 100		> 100	> 100	> 100	> 100	> 100	> 100	> 100	> 100	> 100	> 100	> 100	> 100	> 100	> 100	> 100
O=C1CCCCC/C1=C\c1ccc(F)cc1	59.8	> 100	> 100	> 100	> 100	> 100	> 100	> 100		> 100	> 100	> 100	> 100	> 100	> 100	> 100	> 100	> 100	> 100	> 100
O=[N+]([O-])C(Cl)C(Cl)C(Cl)=C(Cl)Cl (centres undefined)	58.6	> 100	> 57.4	34.6		56.7	47.9	> 31.6	> 54.9	43.9	> 100	38.3		31.1	> 100	39	24.4	19.5	> 100	> 100
Cc1ccc2c(c1)C(=O)/C(=C\c1ccccc1)CCS2(=O)=O		24.9	> 71.1	35.5		> 61.4	49.6	26.7	18.9	> 37.2	31	73.5	89.8	24.2	> 86	> 66.4	29.4	> 53.8	29.6	> 49.9
CC(C)/C(Cl)=N\OC(=O)Nc1cccc(F)c1	5.07	> 66.8	30.2	31.4	15.3		61.6	32.6	32.8	19.5	33.4	5.5	18.9	27.8	> 31.6	31.9	28.4	10.8	> 53.9	33.5
CCOP(C)(=O)C(Cc1c[nH]c2ccccc12)C(=O)O (centres undefined)	> 100		> 100	> 100	> 100	> 100	> 100	> 100	> 100	> 100	> 100	> 100	> 100	> 100	> 100	> 100	> 100	> 100	> 100	
Cc1ccc(/C(O)=C/c2nc3ccccc3oc2=O)cc1	> 100	> 100	> 100	> 100		83.4	> 100	> 100	> 100	> 100	> 100		> 100	> 100	> 100		46.2	> 100	> 100	> 100
N#Cc1c(-c2ccc(Cl)cc2)cc(-c2ccc(Nc3ccnc4cc(C(F)(F)F)ccc34)cc2)[nH]c1=O	11	> 100	> 100	65.8	> 73.7	10.2	14.8		> 100	35.5	> 100	> 84.2	> 100	> 100	> 57.7	> 34.6	> 53.4	13.9	> 87.1	> 100
COc1cc(O)cc(/C=C/c2ccc(O)cc2)c1		> 100	> 100	47.9	25.7	> 100	> 100	> 100	> 100	39.6	81.4	> 100	> 100	31.2	> 100	> 100	> 100	> 100	84.3	63.1
CSC1=C(C(=O)Nc2ccc(Cl)cc2)C(N)=NC1=O	> 100	> 100	> 100	> 100	> 100	> 100	> 100	> 100	> 100	> 100	> 100	> 100	> 100			> 100	> 100	> 100		> 100
COc1cc(/C=C2\C[C@H]3[C@@H]4CC=C5C[C@@H](O)CC[C@]5(C)[C@H]4CC[C@]3(C)[C@H]2O)cc(OC)c1OC		> 100	92.6	41.7	> 100	87.2	72.6	36.8	> 100	56.8	40.8	> 100	32.5	> 100	41.3	> 100	21.5	61.7	22.4	> 100
CC(=N/NC(=S)N1CCCCC1)/C(=N\NC(=S)N1CCCCC1)c1ccccc1		4.48	3.55	> 19.8	> 100	4.07	3.99	4.03	> 22.7	3.56	3.53		4.62	3.01	4.43	3.94	3.57	3.64	3.82	3.47
C#CCOC(=O)c1ccccc1O	> 100	> 100	> 100	> 100	> 100	> 100	> 100	> 100	> 100	> 100	> 100	> 100	> 100	> 100	> 100		> 100	> 100	> 100	> 100
CCN(CC)CC(=O)Nc1c(C(N)=O)nnn1Cc1cc(Cl)c(C(=O)c2ccc(Cl)cc2)c(Cl)c1	41.5		38.7	34.8	77.7	37.2	61.9	31.2	32.4	34.6	41.1	40.4	28.4	> 100	34.2	33.3	30.4	30.9	32.9	30.4
C=CCCCC1CCCNC1=O (centres undefined)		> 100	> 100	> 100	> 100	> 100	> 100	> 100	> 100	> 100	> 100	> 100	> 100	> 100	> 100	> 100	> 100	> 100	> 100	> 100
CC1Cc2c(Br)nc(N)nc2NC1=O (centres undefined)		> 100	> 100	> 100	> 100	> 100	> 100	> 100	> 100	> 100	> 100	> 100	> 100	> 100	> 100	> 100	> 100	> 100	> 100	> 100
COc1ccccc1C1SCC(=O)N1c1ccc(-n2c(-c3ccccc3)nc3ccccc3c2=O)cc1 (centres undefined)	> 100	> 100	> 100	> 100	> 100	> 100	> 100	> 100	> 100	> 100	> 100	> 100	> 100	> 100	> 100	> 100	> 100		> 100	> 100
